System: Energy system protein genes
Assay: DNA chip mRNA expression in yeast, energy system protein genes (Table 4)
Type: cell-based, Saccharomyces cerevisiae S288C
Summary of the method: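 Ratios compare mRNA levels in stressed and control S. cerevisiae. Each toxicant was applied for two hours to log-phase cultures at 25° C. at a sub-lethal, growth-inhibiting level; fluorescent cDNA (Cy3- or Cy5-dUTP) was hybridized to a genome-wide yeast chip for over 12 h at 65° C.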

N#Cc1c(Cl)c(Cl)c(Cl)c(C#N)c1Cl [(9), 2,4,5,6-tetrachloro-1,3-benzenedicarbonitrile]
The level of expressed mRNA in the presence of chemical substance/The level of expressed mRNA in the absence of chemical substance (yeast gene YAL054C): 8.9 | The level of expressed mRNA in the presence of chemical substance/The level of expressed mRNA in the absence of chemical substance (yeast gene YAL060W): 0.6 | The level of expressed mRNA in the presence of chemical substance/The level of expressed mRNA in the absence of chemical substance (yeast gene YBL058W, cells incubated two hours with the chemical substance): 2.6 | The level of expressed mRNA in the presence of chemical substance/The level of expressed mRNA in the absence of chemical substance (yeast gene YBL099W, cells incubated two hours with the chemical substance): 0.9 | The level of expressed mRNA in the presence of chemical substance/The level of expressed mRNA in the absence of chemical substance (yeast gene YBR001C, cells incubated two hours with the chemical substance): 2.3 | The level of expressed mRNA in the presence of chemical substance/The level of expressed mRNA in the absence of chemical substance (yeast gene YBR185C, cells incubated two hours with the chemical substance): 0.9 | The level of expressed mRNA in the presence of chemical substance/The level of expressed mRNA in the absence of chemical substance (yeast gene YBR221C, cells incubated two hours with the chemical substance): 1.0 | The level of expressed mRNA in the presence of chemical substance/The level of expressed mRNA in the absence of chemical substance (yeast gene YBR299W): 1.1 | The level of expressed mRNA in the presence of chemical substance/The level of expressed mRNA in the absence of chemical substance (yeast gene YCL040W): 0.9 | The level of expressed mRNA in the presence of chemical substance/The level of expressed mRNA in the absence of chemical substance (yeast gene YCR012W): 1.4 | The level of expressed mRNA in the presence of chemical substance/The level of expressed mRNA in the absence of chemical substance (yeast gene YCR046C, cells incubated two hours with the chemical substance): 1.9 | The level of expressed mRNA in the presence of chemical substance/The level of expressed mRNA in the absence of chemical substance (yeast gene YCR105W, cells incubated two hours with the chemical substance): 2.0 | The level of expressed mRNA in the presence of chemical substance/The level of expressed mRNA in the absence of chemical substance (yeast gene YDL021W): 2.5 | The level of expressed mRNA in the presence of chemical substance/The level of expressed mRNA in the absence of chemical substance (yeast gene YDL067C, cells incubated two hours with the chemical substance): 0.9 | The level of expressed mRNA in the presence of chemical substance/The level of expressed mRNA in the absence of chemical substance (yeast gene YDL078C, cells incubated two hours with the chemical substance): 1.1 | The level of expressed mRNA in the presence of chemical substance/The level of expressed mRNA in the absence of chemical substance (yeast gene YDL107W, cells incubated two hours with the chemical substance): 1.2 | The level of expressed mRNA in the presence of chemical substance/The level of expressed mRNA in the absence of chemical substance (yeast gene YDL174C): 0.5 | The level of expressed mRNA in the presence of chemical substance/The level of expressed mRNA in the absence of chemical substance (yeast gene YDL181W, cells incubated two hours with the chemical substance): 0.7 | The level of expressed mRNA in the presence of chemical substance/The level of expressed mRNA in the absence of chemical substance (yeast gene YDR001C): 2.2 | The level of expressed mRNA in the presence of chemical substance/The level of expressed mRNA in the absence of chemical substance (yeast gene YDR050C, cells incubated two hours with the chemical substance): 0.4 | The level of expressed mRNA in the presence of chemical substance/The level of expressed mRNA in the absence of chemical substance (yeast gene YDR079W, cells incubated two hours with the chemical substance): 0.9 | The level of expressed mRNA in the presence of chemical substance/The level of expressed mRNA in the absence of chemical substance (yeast gene YDR178W, cells incubated two hours with the chemical substance): 0.9 | The level of expressed mRNA in the presence of chemical substance/The level of expressed mRNA in the absence of chemical substance (yeast gene YDR231C): 1.5 | The level of expressed mRNA in the presence of chemical substance/The level of expressed mRNA in the absence of chemical substance (yeast gene YDR298C, cells incubated two hours with the chemical substance): 1.0 | The level of expressed mRNA in the presence of chemical substance/The level of expressed mRNA in the absence of chemical substance (yeast gene YDR377W, cells incubated two hours with the chemical substance): 1.0 | The level of expressed mRNA in the presence of chemical substance/The level of expressed mRNA in the absence of chemical substance (yeast gene YDR529C, cells incubated two hours with the chemical substance): 0.5 | The level of expressed mRNA in the presence of chemical substance/The level of expressed mRNA in the absence of chemical substance (yeast gene YEL024W, cells incubated two hours with the chemical substance): 0.7 | The level of expressed mRNA in the presence of chemical substance/The level of expressed mRNA in the absence of chemical substance (yeast gene YEL039C, cells incubated two hours with the chemical substance): 1.2 | The level of expressed mRNA in the presence of chemical substance/The level of expressed mRNA in the absence of chemical substance (yeast gene YER178W): 1.7 | The level of expressed mRNA in the presence of chemical substance/The level of expressed mRNA in the absence of chemical substance (yeast gene YFL057C): 51.8 | The level of expressed mRNA in the presence of chemical substance/The level of expressed mRNA in the absence of chemical substance (yeast gene YFR053C): 0.6 | The level of expressed mRNA in the presence of chemical substance/The level of expressed mRNA in the absence of chemical substance (yeast gene YGL018C, cells incubated two hours with the chemical substance): 0.5 | The level of expressed mRNA in the presence of chemical substance/The level of expressed mRNA in the absence of chemical substance (yeast gene YGL062W): 1.6 | The level of expressed mRNA in the presence of chemical substance/The level of expressed mRNA in the absence of chemical substance (yeast gene YGL187C, cells incubated two hours with the chemical substance): 0.6 | The level of expressed mRNA in the presence of chemical substance/The level of expressed mRNA in the absence of chemical substance (yeast gene YGL191W, cells incubated two hours with the chemical substance): 1.1 | The level of expressed mRNA in the presence of chemical substance/The level of expressed mRNA in the absence of chemical substance (yeast gene YGL205W, cells incubated two hours with the chemical substance): 0.5 | The level of expressed mRNA in the presence of chemical substance/The level of expressed mRNA in the absence of chemical substance (yeast gene YGL256W, cells incubated two hours with the chemical substance): 0.4 | The level of expressed mRNA in the presence of chemical substance/The level of expressed mRNA in the absence of chemical substance (yeast gene YGR008C): 3.1 | The level of expressed mRNA in the presence of chemical substance/The level of expressed mRNA in the absence of chemical substance (yeast gene YGR043C): 10.9 | The level of expressed mRNA in the presence of chemical substance/The level of expressed mRNA in the absence of chemical substance (yeast gene YGR062C, cells incubated two hours with the chemical substance, 25° C., YPD medium): 1.0 | The level of expressed mRNA in the presence of chemical substance/The level of expressed mRNA in the absence of chemical substance (yeast gene YGR087C, cells incubated two hours with the chemical substance): 0.2 | The level of expressed mRNA in the presence of chemical substance/The level of expressed mRNA in the absence of chemical substance (yeast gene YGR174C, cells incubated two hours with the chemical substance): 1.8 | The level of expressed mRNA in the presence of chemical substance/The level of expressed mRNA in the absence of chemical substance (yeast gene YGR192C): 0.9 | The level of expressed mRNA in the presence of chemical substance/The level of expressed mRNA in the absence of chemical substance (yeast gene YGR244C): 1.4 | The level of expressed mRNA in the presence of chemical substance/The level of expressed mRNA in the absence of chemical substance (yeast gene YGR254W): 0.8 | The level of expressed mRNA in the presence of chemical substance/The level of expressed mRNA in the absence of chemical substance (yeast gene YGR256W): 3.4 | The level of expressed mRNA in the presence of chemical substance/The level of expressed mRNA in the absence of chemical substance (yeast gene YHL008C): 1.6 | The level of expressed mRNA in the presence of chemical substance/The level of expressed mRNA in the absence of chemical substance (yeast gene YHR174W): 1.0 | The level of expressed mRNA in the presence of chemical substance/The level of expressed mRNA in the absence of chemical substance (yeast gene YHR179W): 3.6 | The level of expressed mRNA in the presence of chemical substance/The level of expressed mRNA in the absence of chemical substance (yeast gene YIL160C): 3.2 | The level of expressed mRNA in the presence of chemical substance/The level of expressed mRNA in the absence of chemical substance (yeast gene YIR031C, cells incubated two hours with the chemical substance): 2.6 | The level of expressed mRNA in the presence of chemical substance/The level of expressed mRNA in the absence of chemical substance (yeast gene YJL052W): 1.6
